System: human colon cancer cell line SW620
Assay: In vivo anticancer effect, SW620 transplanted nude mice
Design: species or system BALB/c nude mice
Experimental: Female SPF BALB/c nude mice purchased from Charles River, Japan, were used as test animals. They were at 6 weeks and weighed 14-17 g. Before being used for experiments, the test animals were adapted at least one week in a clean animal lab. Temperature of the animal lab was 21±2° C. and humidity was set at 55±5%. Light/dark cycle was automatically regulated as 12/12. The solid feeds for the test animals were radiation sterilized products (Polas International, Seoul, Korea). Drinking water was sterilized by autoclave. Feeds and drinking water were given freely.
For the cancer cell line, human colon cancer cell line SW620 purchased from ATCC, USA and stored at Korean Research Institute of Bioscience and Biotechnology was used. […] On the final day of culture, every cell was collected and counted and the final cell concentration was regulated to 1×10^7 cells/ml by adding saline.
SW620 cancer cells were hypodermically injected in the right armpit in-between the shoulder and the wall of chest by 0.3 ml at the concentration of 3×10^6 cells/mouse. […] Weight changes of the test animals were measured three times per week. Tumor volume was measured 7 times from day 5 to day 20 in every test animal. Precisely, the tumor volume was measured by measuring three dimensions of the tumor using Vernier Caliper and then calculated by the following formula: […]

Compound: COc1cccc2c1C(=O)c1c(O)c3c(c(O)c1C2=O)C[C@@](O)(C(=O)CO)C[C@@H]3O[C@H]1C[C@H](N)[C@H](O)[C@H](C)O1 [adriamycin]
- weight loss (adriamycin administered positive control, p<0.001): 13.1%
- tumor growth inhibition (positive control, P<0.001): 58.0%

Reference: patent publication US20090263521A1, “COMPOSITION FOR THE TREATMENT OF CANCERS AND INHIBITION OF METASTASIS CONTAINING EXTRACTS OR FRACTIONS OF THE MAGNOLIA OBOVATA” (KOREA RESEARCH INSTITUTE OF BIOSCIENCE AND BIOTECHNOLOGY, priority 2008, published 2009)
